Experiments:
[1] = system: C57BL/6J mice on a HFD (liver tissue); test: Prevention of NAFLD in C57BL/6J mice fed a HFD (Example 7): macroscopic observation, hematoxylin and eosin histology, liver triglyceride quantification; type: in vivo; settings: C57BL/6J mice on HFD; for mean triglyceride concentration (mg/g liver) in liver tissue compared with HFD or HFD + DMSO mice / Percentage of Triglyceride Values (mg/g liver) Below the Mean of the HFD + Sham Group / macroscopic observation of fatty liver disease compared with sham or DMSO injection: 1 mg/kg intraperitoneal once daily for 6 weeks; for mean triglyceride concentration (mg/g liver) in liver tissue compared with HFD or HFD + DMSO mice: comparison of means in FIG. 3; for Percentage of Triglyceride Values (mg/g liver) Below the Mean of the HFD + Sham Group: middle, right and left liver lobes (FIG. 3), 1 mg/kg; for macroscopic observation of fatty liver disease compared with sham or DMSO injection: removed liver tissue; for histological examination of hepatic fat accumulation compared with sham or DMSO injection: 1 mg/kg intraperitoneal once daily, middle lobe of liver, hematoxylin and eosin (FIG. 4)
Description: Quantification of triglycerides of the middle, right, and left lobes was performed to ensure that accumulation (or lack thereof) of triglycerides was similar in each lobe of the liver and to ensure that a representative analysis of triglyceride accumulation in the liver as a whole was assessed. The caudate lobe was excluded since the caudate lobe is very small compared to the middle, right, and left lobes. Triglycerides were quantified in accordance with the following general protocol, based upon the Salmon and Flatt Method of Liver Saponification. 50-100 mg of liver tissue was placed into an Eppendorf tube and weighed. Equal volume per weight of 3 M KOH (in 65% EtOH) was added to the tube and vortexed. The tube was placed at 70° C. for 1 hr to activate digestion. The tubes were vortexed every 15 minutes. The tube was set at room temperature overnight to allow for complete digestion, and was vortexed periodically. The sample was diluted to a final concentration of 100 mg of liver tissue per 600 μl fluid; the sample was diluted by adding 2 M Tris-HCl (un-pHed) to a final concentration of 50 mM. Where a second dilution was required, the sample was diluted using 50 mM Tris-HCl (pH 7.5). Triglycerides-GPO (0.5 mL, liquid; Pointe Scientific Cat. No. T7532-500; Fisher Scientific, Pittsburgh, Pa.) were aliquoted into Eppendorf tubes and warmed in a 37° C. water bath for 5-10 minutes. Glycerol standards (0, 1, 2.5, 5, 7.5 and 10 mmol/L) were made by diluting 10 mmol/L stock of glycerol, such as, e.g., with 50 mM Tris-HCl. 5 μL of the sample and glycerol standards (0, 1, 2.5, 5, 7.5 and 10 mmol/L) were added to 0.5 mL of the triglycerides-GPO, mixed, and incubated at room temperature for 5 minutes. The mixture was then vortexed and added (200 μL) to each well of a 96-well flat-bottom ELISA plate (in triplicate). Absorbance (i.e., optical density) was read at 500 nm. The concentrations of the samples were determined via use of a plot of glycerol standards concentration (mmol/L) with respect to optical density (i.e., O.D.) at 500 nm. The concentration of glycerol (mg glycerol/g tissue) was then calculated and triglyceride concentration was determined, in accordance with calculations known to those of ordinary skill in the art.
Experimental Protocol. 7 week old male C57BL/6J mice (i.e., a mouse model of obesity-induced insulin resistance and Type 2 Diabetes Mellitus) were placed on a HFD (i.e., having a fat content of 60%, a protein content of 20%, and a carbohydrate content of […], N=50). The C57BL/6J mice on the HFD were divided into five groups, wherein one such group was immediately given an intraperitoneal sham injection (i.e., Group 1, serving as a stress control N=10), another group was immediately given an intraperiteonal injection of dimethyl sulfoxide (hereinafter, “DMSO”, i.e., Group 2, serving as a vehicle control, N=10), another group was immediately given an intraperitoneal injection of 1 mg/kg COB-204 (i.e., Group 3, N=10), another group was immediately given an intraperitoneal injection of 1 mg/kg COB-214 (i.e., Group 4, N=10), and another group was immediately given an intraperitoneal injection of 1 mg/kg COB-187 (i.e., Group 5, N=10). Such injections were initiated with the HFD and were given to the C57BL/6J mice on the HFD once daily for a period of 6 weeks. Food intake and total body weight of the C57BL/6J mice were measured weekly.
At 0 weeks, some of the C57BL/6J mice from each of Groups 1-5 were euthanized (N=5). Liver tissue of the C57BL/6J mice euthanized at 0 weeks was harvested and divided into lobes, including the middle lobe, the right lobe, and the left lobe, for morphological (i.e., hematoxylin and eosin staining) and molecular analysis (i.e., quanitification of triglycerides). The caudate lobe was excluded from such division as the caudate lobe is very small compared to the middle, right, and left lobes. […]

[2] = system: C57BL/6J mice on an HFD with NAFLD (liver tissue); test: Treatment of NAFLD in C57BL/6J mice fed a HFD (Example 8, contemplated); type: in vivo; settings: C57BL/6J mice on HFD after NAFLD is observed; once daily ip 1, 3 or 10 mg/kg/day for up to 16 weeks (24 weeks if no effect)
Description: Contemplated Experimental Protocol. C57BL/6J mice are placed on an HFD containing 60% fat (by % Kcal) (Diet #D12492, Research Diets, Inc.) for a period of weeks (as determined by the results of Example 6) until development of NAFLD is observed and clearly distinguishable from LFD-fed mice of the same age (between 4-8 weeks). At the time or after NAFLD is observed, once daily ip injections of COB-204, COB-214, COB-152, COB-187, DMSO, or sham are administered. Five mice are then euthanized weekly thereafter to characterize the effects of the COB-204, COB-214, COB-152, COB-187, DMSO, and/or sham on treatment of NAFLD for the period of up to 16 weeks post-initiation of the COB-204, COB-214, COB-152, COB-187, DMSO, and sham administration. The period of time for which treatment is administered will be extended to 24 weeks if no effect of the COB-204, COB-214, COB-152, or COB-187 administration on treatment of NAFLD is observed. The following Table further illustrates the experimental design:
If no effect of the COB-204, COB-214, COB-152, or COB-187 administration on treatment of NAFLD is observed by 16 weeks post-initiation of the COB-204, COB-214, COB-152, COB-187, DMSO, and sham administration, a subsequent study is performed wherein the period of time is extended to 24 weeks of the COB-204, COB-214, COB-152, and COB-187 administration, with 5 mice euthanized weekly from weeks 17-24 as previously described. The following Table further illustrates the experimental design:
NAFLD is evaluated in the liver of the HFD mice macroscopically, microscopically, and molecularly. More specifically, following euthanasia, the liver of each mouse is removed, weighed, and photographs taken thereof for macroscopic and/or gross observation of NAFLD. Then, the liver of each mouse is split in half, wherein one half is used for microscopic analysis of NAFLD and the remaining half is used for molecular analysis of NAFLD (i.e., quantification of triglycerides). Quantification of triglycerides is performed in accordance with the general protocol described in Example 6.

[3] = system: Patients at risk for developing NAFLD; test: Therapeutic use to prevent development of NAFLD in patients at risk (Example 10, contemplated); type: in vivo, human; settings: once daily oral dose of 1 mg/kg, chronically
Description: Contemplated Experimental Protocol. Patients at risk for developing NAFLD are prescribed COB-204, COB-214, COB-152, or COB-187 to prevent excess accumulation of fat. Each patient takes a once daily oral dose of 1 mg/kg of body weight of the COB-204, COB-214, COB-152, or COB-187, chronically, during which fat content in the liver is determined via liver function testing, liver ultrasound, and liver biopsy.

[4] = system: Patients having NAFLD; test: Therapeutic use to treat NAFLD in patients (Example 11, contemplated); type: in vivo, human; settings: once daily oral dose of 3 mg/kg
Description: Contemplated Experimental Protocol. Patients having NAFLD are prescribed COB-204, COB-214, COB-152, or COB-187 to reduce the fat content in their liver. After determination of a baseline level of fat content in each of the patients' livers, each patient takes a once daily oral dose of 3 mg/kg of body weight of the COB-204, COB-214, COB-152, or COB-187, during which fat content in each patient's liver tissue is determined via liver function testing, liver ultrasound, and liver biopsy.

| Structure (SMILES) | mean triglyceride concentration (mg/g liver) in liver tissue compared with HFD or HFD + DMSO mice [1] | Percentage of Triglyceride Values (mg/g liver) Below the Mean of the HFD + Sham Group [1] [%] | macroscopic observation of fatty liver disease compared with sham or DMSO injection [1] | histological examination of hepatic fat accumulation compared with sham or DMSO injection [1] | fat content in the liver tissue of the mice [2] | excess accumulation of fat in the liver of patients [3] | fat content in the patient's liver [4] |
| --- | --- | --- | --- | --- | --- | --- | --- |
| OC1(c2ccccc2)CSC(=S)N1Cc1ccncc1 (stereo not drawn) [COB-187] | lower mean triglyceride concentration | 79 | much less fatty liver disease | much less hepatic fat accumulation | reduced relative to a baseline level | no excess accumulation of fat | reduced relative to the baseline level |
| COc1ccc(-c2csc(=S)n2Cc2cccnc2)c(OC)c1 [COB-204] | no effect | 60 | much less fatty liver disease | much less hepatic fat accumulation | reduced relative to a baseline level | no excess accumulation of fat | reduced relative to the baseline level |
| CCCn1c(-c2cccnc2)csc1=S [COB-214] | lower mean triglyceride concentration | 87 | much less fatty liver disease | much less hepatic fat accumulation | reduced relative to a baseline level | no excess accumulation of fat | reduced relative to the baseline level |
| OC1(c2ccccc2)CSC(=S)N1Cc1cccnc1 (stereo not drawn) [COB-152] |  |  |  |  | reduced relative to a baseline level | no excess accumulation of fat | reduced relative to the baseline level |

— patent publication US10392381B2, “Prevention and treatment of non-alcoholic fatty liver disease” (Ohio University, priority 2014, dated 2019)
